According to patent US6897218B2, “Nitric oxide donors based on metallic centers” (Consiglio Nazionale Delle Ricerche, priority 2001, dated 2005):

Assays:
[1] = test system: rabbit aorta precontracted with noradrenaline; assay: relaxation of rabbit aorta precontracted with noradrenaline
[2] = test system: endothelial cells of the microcirculatory system; assay: endothelial cell migration, Boyden chambers; type: cell-based; conditions: compared with other NO donors
Source text: The pharmacological activity of the compounds of the invention has been evaluated by their relaxation induction effect in vascular preparations (rabbit aorta rings) precontracted with noradrenaline (Amerini et al., J. Cardiovasc. Pharmacol., 28: 82-88, […]). The endothelio-protective and pro-angiogenetic effects of the compounds have also been evaluated in a study on the proliferation and migration of endothelial cells of the microcirculatory system (M. Ziche et al., J. Clin. Invest. 94: 2036-2044, 1994).
The endothelio-protective and pro-angiogenetic effect of the compounds was also evaluated by measuring the growth promotion and migration effect on endothelial cells of the microcirculatory system compared with other NO donors. Cell migration was evaluated using Boyden chambers, and proliferation as the total number of cells after 48 hours of exposure to the substances under study (M. Ziche et al., J. Clin. Invest. 94: 2036-2044, 1994).

SMILES: NCCCNCCCCN(CCCN)/[N+]([O-])=N/O [SpermineNONOate, spermineNONOate]
- vascular relaxation, result in words [1]: much less powerful than piperazineNONOate complexes
- effect on endothelial cell migration, result in words [2]: little active and does not give the maximum effect
